Measurements taken from ChEMBL document CHEMBL1151449, “In vitro activity of DC-159a, a new broad-spectrum fluoroquinolone, compared with that of other agents against drug-susceptible and -resistant pneumococci” (2008).
Converted amounts (≈) assume the structure as drawn.

Assays:
Format in all cases: functional
[1] = system: Streptococcus pneumoniae; experiment: Antibacterial activity against penicillin-susceptible Streptococcus pneumoniae ATCC 49619 by agar dilution method
[2] = system: Streptococcus pneumoniae; experiment: Antibacterial activity against penicillin-intermediate Streptococcus pneumoniae […] by agar dilution method
[3] = system: Streptococcus pneumoniae; experiment: Antibacterial activity against penicillin-resistant Streptococcus pneumoniae […] by agar dilution method
[4] = system: Streptococcus pneumoniae; experiment: Antibacterial activity against azithromycin-susceptible Streptococcus pneumoniae ATCC 49619 by agar dilution method
[5] = system: Streptococcus pneumoniae; experiment: Antibacterial activity against azithromycin-resistant Streptococcus pneumoniae […] by agar dilution method
[6] = system: Streptococcus pneumoniae; experiment: Antibacterial activity against quinolone-susceptible Streptococcus pneumoniae ATCC 49619 by agar dilution method
[7] = system: Streptococcus pneumoniae; experiment: Antibacterial activity against quinolone-resistant Streptococcus pneumoniae […] by agar dilution method
[8] = system: Streptococcus pneumoniae; experiment: Antibacterial activity against Streptococcus pneumoniae HMC 1058 harboring S79F, K137N mutation in quinolone-resistant determining regions of ParC gene and 460V mutation in QRDR of ParE gene by agar dilution method
[9] = system: Streptococcus pneumoniae; experiment: Antibacterial activity against Streptococcus pneumoniae HMC 1060 harboring S81F mutation in quinolone-resistant determining regions of GyrA gene, S79F, K137N mutation in QRDR of ParC gene and I460V mutation in QRDR of ParE gene by agar dilution method
[10] = system: Streptococcus pneumoniae; experiment: Antibacterial activity against Streptococcus pneumoniae HMC 1066 harboring S81F mutation in quinolone-resistant determining regions of GyrA gene, S79F mutation in QRDR of ParC gene and I460V mutation in QRDR of ParE gene by agar dilution method
[11] = system: Streptococcus pneumoniae; experiment: Antibacterial activity against Streptococcus pneumoniae HMC 1070 harboring S81F mutation in quinolone-resistant determining regions of GyrA gene, D83N mutation in QRDR of ParC gene and I460V mutation in QRDR of ParE gene by agar dilution method
[12] = system: Streptococcus pneumoniae; experiment: Antibacterial activity against Streptococcus pneumoniae HMC 1073 harboring S81F mutation in quinolone-resistant determining regions of GyrA gene, and I460V mutation in QRDR of ParE gene by agar dilution method
[13] = system: Streptococcus pneumoniae; experiment: Antibacterial activity against Streptococcus pneumoniae HMC 1076 harboring S81F mutation in quinolone-resistant determining regions of GyrA gene, D83N mutation in QRDR of ParC gene and I460V mutation in QRDR of ParE gene by agar dilution method
[14] = system: Streptococcus pneumoniae; experiment: Antibacterial activity against Streptococcus pneumoniae HMC 1146 harboring S81F mutation in quinolone-resistant determining regions of GyrA gene, and D435N mutation in QRDR of ParE gene by agar dilution method
[15] = system: Streptococcus pneumoniae; experiment: Antibacterial activity against Streptococcus pneumoniae HMC 1147 harboring S81F mutation in quinolone-resistant determining regions of GyrA gene, S79F mutation in QRDR of ParC gene and I460V mutation in QRDR of ParE gene showing efflux to gemifloxacin by agar dilution method
[16] = system: Streptococcus pneumoniae; experiment: Antibacterial activity against Streptococcus pneumoniae HMC 1150 harboring S81C mutation in quinolone-resistant determining regions of GyrA gene, S79F mutation in QRDR of ParC gene and I460V mutation in QRDR of ParE gene by agar dilution method
[17] = system: Streptococcus pneumoniae; experiment: Antibacterial activity against Streptococcus pneumoniae HMC 2538 harboring S81Y mutation in quinolone-resistant determining regions of GyrA gene, S79F, K137N mutation in QRDR of ParC gene and I460V mutation in QRDR of ParE gene showing efflux to ciprofloxacin, levofloxacin, gatifloxacin by agar dilution method
[18] = system: Streptococcus pneumoniae; experiment: Antibacterial activity against Streptococcus pneumoniae HMC 5041 harboring S81F and S79F mutation in quinolone-resistant determining regions of GyrA and ParC genes respectively by agar dilution method
[19] = system: Streptococcus pneumoniae; experiment: Antibacterial activity against Streptococcus pneumoniae HMC 1055 harboring S81F mutation in quinolone-resistant determining regions of GyrA gene, S79F, K137N mutation in QRDR of ParC gene and I460V mutation in QRDR of ParE gene by agar dilution method
[20] = system: Streptococcus pneumoniae; experiment: Antibacterial activity against Streptococcus pneumoniae HMC 1059 harboring S81F mutation in quinolone-resistant determining regions of GyrA gene, S79F, K137N mutation in QRDR of ParC gene and I460N mutation in QRDR of ParE gene by agar dilution method
[21] = system: Streptococcus pneumoniae; experiment: Antibacterial activity against Streptococcus pneumoniae HMC 1071 harboring S81F mutation in quinolone-resistant determining regions of GyrA gene and S79F, K137N mutation in QRDR of ParC gene by agar dilution method
[22] = system: Streptococcus pneumoniae; experiment: Antibacterial activity against Streptococcus pneumoniae HMC 1072 harboring S81F mutation in quinolone-resistant determining regions of GyrA gene, S79Y mutation in QRDR of ParC gene and I460V mutation in QRDR of ParE gene by agar dilution method
[23] = system: Streptococcus pneumoniae; experiment: Antibacterial activity against Streptococcus pneumoniae HMC 1074 harboring S81F mutation in quinolone-resistant determining regions of GyrA gene, S79F mutation in QRDR of ParC gene and I460V mutation in QRDR of ParE gene by agar dilution method
[24] = system: Streptococcus pneumoniae; experiment: Antibacterial activity against Streptococcus pneumoniae HMC 1077 harboring S81Y and S79F mutation in quinolone-resistant determining regions of GyrA and ParC genes respectively by agar dilution method
[25] = system: Streptococcus pneumoniae; experiment: Antibacterial activity against Streptococcus pneumoniae HMC 1078 harboring S81F mutation in quinolone-resistant determining regions of GyrA gene, S79F mutation in QRDR of ParC gene and I460V mutation in QRDR of ParE gene by agar dilution method
[26] = system: Streptococcus pneumoniae; experiment: Antibacterial activity against Streptococcus pneumoniae HMC 1149 harboring S81F and S79Y mutation in quinolone-resistant determining regions of GyrA and ParC genes respectively showing efflux to ciprofloxacin, gemifloxacin by agar dilution method
[27] = system: Streptococcus pneumoniae; experiment: Antibacterial activity against Streptococcus pneumoniae HMC 1151 harboring D83N, K137N mutation in quinolone-resistant determining regions of ParC gene and I460V mutation in QRDR of ParE gene showing efflux to ciprofloxacin, gemifloxacin by agar dilution method
[28] = system: Streptococcus pneumoniae; experiment: Antibacterial activity against Streptococcus pneumoniae HMC 1139 harboring S81F mutation in quinolone-resistant determining regions of GyrA gene, S79F, K137N mutation in QRDR of ParC gene and I460V mutation in QRDR of ParE gene by agar dilution method
[29] = system: Streptococcus pneumoniae; experiment: Antibacterial activity against Streptococcus pneumoniae HMC 1156 harboring S81F and S79F mutation in quinolone-resistant determining regions of GyrA and ParC genes respectively showing efflux to ciprofloxacin, gemifloxacin by agar dilution method
[30] = system: Streptococcus pneumoniae; experiment: Antibacterial activity against Streptococcus pneumoniae HMC 1541 harboring S81Y mutation in quinolone-resistant determining regions of GyrA gene, S79F, K137N mutation in QRDR of ParC gene and I460V mutation in QRDR of ParE gene by agar dilution method
[31] = system: Streptococcus pneumoniae; experiment: Antibacterial activity against Streptococcus pneumoniae HMC 2527 harboring S81Y mutation in quinolone-resistant determining regions of GyrA gene, S79F, K137N mutation in QRDR of ParC gene and I460V mutation in QRDR of ParE gene by agar dilution method
[32] = system: Streptococcus pneumoniae; experiment: Antibacterial activity against Streptococcus pneumoniae HMC 2536 harboring S81Y mutation in quinolone-resistant determining regions of GyrA gene, S79F, K137N mutation in QRDR of ParC gene and I460V mutation in QRDR of ParE gene by agar dilution method
[33] = system: Streptococcus pneumoniae; experiment: Antibacterial activity against Streptococcus pneumoniae HMC 4026 harboring S81Y mutation in quinolone-resistant determining regions of GyrA gene, S79F, K137N mutation in QRDR of ParC gene and I460V mutation in QRDR of ParE gene by agar dilution method
[34] = system: Streptococcus pneumoniae; experiment: Antibacterial activity against Streptococcus pneumoniae HMC 1062 harboring S81F mutation in quinolone-resistant determining regions of GyrA gene, S79F mutation in QRDR of ParC gene and I460V mutation in QRDR of ParE gene by agar dilution method
[35] = system: Streptococcus pneumoniae; experiment: Antibacterial activity against Streptococcus pneumoniae HMC 1068 harboring E85K mutation in quinolone-resistant determining regions of GyrA gene, S79Y, K137N mutation in QRDR of ParC gene and I460V mutation in QRDR of ParE gene showing efflux to ciprofloxacin, levofloxacin by agar dilution method

**Q.** Which results are given for `CC1(C)S[C@@H]2[C@H](NC(=O)Cc3ccccc3)C(=O)N2[C@H]1C(=O)O` [PENICILLIN G]?
**A.** MIC50 [1]: 0.03 µg/mL (≈ 0.0897 µM); MIC90 [1]: 0.06 µg/mL (≈ 0.179 µM); MIC50 [2]: 0.25 µg/mL (≈ 0.748 µM); MIC90 [2]: 1 µg/mL (≈ 2.99 µM); MIC50 [3]: 2 µg/mL (≈ 5.98 µM); MIC90 [3]: 4 µg/mL (≈ 12 µM); MIC50 [4]: 0.25 µg/mL (≈ 0.748 µM); MIC90 [4]: 2 µg/mL (≈ 5.98 µM); MIC50 [5]: 0.5 µg/mL (≈ 1.5 µM); MIC90 [5]: 4 µg/mL (≈ 12 µM); MIC50 [6]: 0.25 µg/mL (≈ 0.748 µM); MIC90 [6]: 4 µg/mL (≈ 12 µM); MIC50 [7]: 0.5 µg/mL (≈ 1.5 µM); MIC90 [7]: 4 µg/mL (≈ 12 µM)

**Q.** How did the MIC [8] turn out when `O=C(O)c1cn(C2CC2)c2cc(N3CCNCC3)c(F)cc2c1=O` [CIPROFLOXACIN] was run?
**A.** The MIC was 16 µg/mL (≈ 48.3 µM).

**Q.** And the MIC [9]?
**A.** Its MIC is 16 µg/mL (≈ 48.3 µM).

**Q.** And the MIC [10]?
**A.** The MIC was 16 µg/mL (≈ 48.3 µM).

**Q.** What about the MIC [11] of the same molecule?
**A.** The MIC was greater than 32 µg/mL.

**Q.** And the MIC [12]?
**A.** The MIC was 8 µg/mL (≈ 24.1 µM).

**Q.** And the MIC [13]?
**A.** The MIC was 16 µg/mL (≈ 48.3 µM).

**Q.** And the MIC [14]?
**A.** Its MIC is 32 µg/mL (≈ 96.6 µM).

**Q.** And the MIC [15]?
**A.** Its MIC is 32 µg/mL (≈ 96.6 µM).

**Q.** What about the MIC [16] of the same molecule?
**A.** Its MIC is 16 µg/mL (≈ 48.3 µM).

**Q.** And the MIC [17]?
**A.** Its MIC is 16 µg/mL (≈ 48.3 µM).

**Q.** What about the MIC [18] of the same molecule?
**A.** The MIC was 16 µg/mL (≈ 48.3 µM).

**Q.** What about the MIC [19] of the same molecule?
**A.** Its MIC is 32 µg/mL (≈ 96.6 µM).

**Q.** And the MIC [20]?
**A.** Its MIC is 32 µg/mL (≈ 96.6 µM).

**Q.** What about the MIC [21] of the same molecule?
**A.** Its MIC is 32 µg/mL (≈ 96.6 µM).

**Q.** And the MIC [22]?
**A.** The MIC was greater than 32 µg/mL.

**Q.** And the MIC [23]?
**A.** The MIC was 16 µg/mL (≈ 48.3 µM).

**Q.** What about the MIC [24] of the same molecule?
**A.** The MIC was greater than 32 µg/mL.

**Q.** And the MIC [25]?
**A.** Its MIC is greater than 32 µg/mL.

**Q.** And the MIC50 [7]?
**A.** Its MIC50 is 16 µg/mL (≈ 48.3 µM).

**Q.** And the MIC90 [7]?
**A.** The MIC90 was greater than 32 µg/mL.

**Q.** What about the MIC [26] of the same molecule?
**A.** The MIC was 16 µg/mL (≈ 48.3 µM).

**Q.** And the MIC [27]?
**A.** Its MIC is 16 µg/mL (≈ 48.3 µM).

**Q.** What about the MIC [28] of the same molecule?
**A.** Its MIC is 32 µg/mL (≈ 96.6 µM).

**Q.** And the MIC [29]?
**A.** The MIC was greater than 32 µg/mL.

**Q.** What about the MIC [30] of the same molecule?
**A.** The MIC was 16 µg/mL (≈ 48.3 µM).

**Q.** And the MIC [31]?
**A.** Its MIC is 16 µg/mL (≈ 48.3 µM).

**Q.** And the MIC [32]?
**A.** Its MIC is 16 µg/mL (≈ 48.3 µM).

**Q.** And the MIC [33]?
**A.** Its MIC is greater than 32 µg/mL.

**Q.** And the MIC [34]?
**A.** The MIC was greater than 32 µg/mL.

**Q.** And the MIC [35]?
**A.** The MIC was 32 µg/mL (≈ 96.6 µM).
